This note sets out measurements from patent publication US20250064717A1, “MANUFACTURE OF COSMETIC CAROTENOID COMPOSITIONS” (Unibar Corporation, priority 2022, published 2025).

Values after ≈ are worked out from the molar mass of the structure shown.

For test [1], the system named is Candida albicans (ATCC-10231). The test is described as follows: Antifungal culture microdilution MIC assay. Type of test: cell-based. The conditions noted are these: ATCC10231, 50% reduction of fungal growth, 48-72 hours. From the text:
(§1) The anti-fungal activity of CAP-50CR and CAP-1.5SE against Malassezia furfur and Candida albicans are compared with the anti-fungal drug ketoconazole by the minimum inhibitory concentration (“MIC”) method.
(§2) The inhibitory effect assay of CAP-50CR and CAP-1.5SE against Malassezia furfur and Candida albicans may be performed as per a culture microdilution reference method. Ketoconazole, an anti-fungal drug, may be used as the standard. Freeze-dried Candida albicans (ATCC-10231) and Malassezia furfur (ATCC-14521) strains may be used as well. A loopful culture of Malassezia furfur and Candida albicans may be streaked on SDA (Sabouraud Dextrose Agar), and incubated at 35±2° C. and 25±2° C. for 48-72 hours, respectively. Finally, cells may be suspended in a RPMI 1640 medium to obtain a final concentration of 1×10^6 CFU/mL. For the evaluation of inhibitory activity, the effect of CAP-50CR and CAP-1.5SE may be examined against strains of Malassezia furfur and Candida albicans cultured in 96-well microplates at different concentrations of 35±2° C. and 25±2° C., respectively, for 48-72 hours.
(§3) Sterility and growth control may also be used. Yeast growth may be determined in an Enzyme-Linked ImmunoSorbent Assay Microplate Reader at 530 nm. […]
Background: Dilution methods test growth across graded concentrations, often in twofold steps.

For test [2], the system named is Malassezia furfur (ATCC-14521). The test is described as follows: Antifungal culture microdilution MIC assay. It is filed as cell-based. The conditions noted are these: ATCC14521, 50% reduction of fungal growth, 48-72 hours.
Source text: as §1, §2, §3

In the case of `CC(=O)N1CCN(c2ccc(OCC3COC(Cn4ccnc4)(c4ccc(Cl)cc4Cl)O3)cc2)CC1` (centres unmarked) [Ketoconazole], the MIC50 in test [1] and in test [2] was 0.48 µg/mL (≈ 0.903 µM) each time.

One may read the MIC50 as the lowest concentration that inhibits either 50% of growth or 50% of the strains tested, depending on the study. Read a low MIC50 as higher susceptibility.
